Patent publication US3951979A, “New amino propanediol derivatives” (priority 1972, dated 1976)
Read-outs that look alike come from different tables or passages of the source.

Tests used:
coughing spasms = test: Antitussive effect: inhibition of coughing spasms induced by stimulating a laryngeal nerve; format: in vivo, cat; details: for Activity of the product (antitussive) / Duration of activity (antitussive): cat; for Dose of pentoxyverine necessary for comparable antitussive effect, relative to compound: versus pentoxyverine
Description: Finally, the compounds of the invention having shown themselves to be powerful antitussive agents, the results of comparative tests for this activity on four compounds of the invention and on pentoxyverine, one of the most powerful antitussive agents at present known, are given below in Table V.
The technique used was the method of R. Domenjoz, Arch. Exp. Pathol. V. Pharmacol. Volume 215, page 19 (1952)
The cat is anaesthetized with ether and tracheotomised.
Coughing spasms are induced by stimulating a laryngeal nerve. After the product to be tested has been administered, fresh stimulation enables the inhibition achieved and its duration to be assessed.

[1] = tested on: carotid arterial blood-pressure; test: Effect on carotid arterial blood-pressure of the dog anaesthetised with chloralose; format: in vivo; details: for Hypotensive effect (in words): in vivo
Procedure: EFFECT ON ARTERIAL BLOOD-PRESSURE This was measured on the dog anaesthetised with chloralose by recording both the extent of, and the duration of, the effect on carotid arterial blood-pressure.

[2] = Acute toxicity, LD50, oral administration; details: in vivo, mouse
Procedure: 1. Acute toxicity -- LD50 -- Oral administration
This was determined upon the mouse by oral administration, the LD50 value being calculated by the method of B. Behrens & C. Karber (Arch F. Exp. Patho. Pharm., volume 177, page 379 (1935) )

[3] = tested on: mebubarbital-induced sleep; test: Potentiation of an inactive dose of a barbiturate (mebubarbital); format: in vivo; details: for ED50: 0.25 h, read-out: Barbiturates (potentiation), ED50
rat = test: Cataleptic effect, homolateral crossed paws method; format: in vivo; design: Catalepsy: unit not given here; details: for Catalepsy / Catalepsy, result at stated dose: I.P.; for Cataleptic effect (in words): in vivo
cerebral dopamine = test: Biochemical dopamine effect on the brain (spectrofluorometric); format: in vivo, mouse (strain OF1); details: mouse; for Cerebral dopamine / Cerebral dopamine (result in words): I.P.; for Cerebral dopamine (result in words): dose not given
Procedure: 7. Biochemical dopamine effect on the brain This effect is measured by spectrofluorometric means using the Jobin-Yvon Bearn apparatus, on the brains of mice of the strain OF1.

[4] = tested on: apomorphine-induced vomiting; test: Anti-emetic effect: apomorphine-induced attempted vomits in beagle dogs; format: in vivo; details: dog
Procedure: The anti-emetic effect, which may constitute a contributory factor to the main effect, was also systematically tested in accordance with the following procedure:
Dogs of the beagle breed were split up at random into groups of 3 animals. After fasting for 24 hours, the animals were given an empty capsule then, one hour later, received a sub-cutaneous injection of apomorphine hydrochloride (0.3 mg/kg). The number of attempted vomits during 45 minutes was then counted.
After 15 days rest, the same animals were given a capsule identical to that given on the first occasion but containing the product to be tested. The injection of apomorphine was carried out under the same conditions as for the control experiment.

apomorphine = test: Anti-apomorphic effect in the rat; format: in vivo; design: Anti-apomorphine: unit not given here; details: for Anti-apomorphine: apomorphine 0.6 mg/kg; for Activity in apomorphine stereotypes (in words): in vivo
central nervous system = test: Effect on the central nervous system, overall psycholeptic/neuroleptic spectrum; details: in vivo
Description: EFFECT ON THE CENTRAL NERVOUS SYSTEM
This effect was observed by means of a set of tests of which the most significant are summarised below: […]

[5] = Canis lupus familiaris, 1.25 mg/kg intravenous
[6] = oral administration, sleep in 50% of animals 15 minutes after product

C#CC1(OCC(O)CN2CCN(CC(OCC)c3ccccc3)CC2)CCCCC1 (stereo not shown) [compound 22]
Activity of the product (antitussive) (coughing spasms; 10 mg/kg body weight): 75%
Duration of activity (antitussive) (coughing spasms; 10 mg/kg body weight): 50 min
Dose of pentoxyverine necessary for comparable antitussive effect, relative to compound (coughing spasms): five times greater

C[C@](N)(Cc1ccc(O)c(O)c1)C(=O)O [αmethyldopa, reference compound]
Duration of activity (blood-pressure) ([1]; 1.25 mg/kg intravenous): 95 min
change in vivo at 1.25 mg/kg [1, 5]: -8.7%

C#CC1(OCC(O)CN2CCN(c3ccc(Cl)cc3)CC2)CCCCC1 (stereo not shown) [compound 8]
LD50 [2]: > 600 mg/kg
ED50 [3, 6]: 50 mg/kg
Catalepsy (rat): 30
Cerebral dopamine (cerebral dopamine; at 80 mg/kg): -78%
Reduction in attempted vomits ([4]; 5 mg/kg oral): 76%

C#CC1(OCC(O)CN2CCN(c3ccccc3OC)CC2)CCCCC1 (stereo not shown) [Compound No. 20, 1-3-(1-ethynyl)cyclohexyloxy-2-hydroxy-propyl-4-(2-methoxy)phenylpiperazine]
LD50 [2]: 60 mg/kg
Barbiturates (potentiation), ED50 [3, 6]: Inactive
Catalepsy, result at stated dose (rat; at 20): Inactive
Cataleptic effect (in words) (rat): non-inducive of catalepsy
Cerebral dopamine (result in words) (cerebral dopamine): Inactive
Anti-apomorphine (apomorphine; I.P.): 5
Activity in apomorphine stereotypes (in words) (apomorphine): active in apomorphine stereotypes
Duration of activity (blood-pressure) ([1]; 1.25 mg/kg intravenous): ≥ 70 min
change in vivo at 1.25 mg/kg [1, 5]: -35.6%
Hypotensive effect (in words) [1]: especially hypotensive
Reduction in attempted vomits ([4]; 1 mg/kg oral): 100%
Reduction in attempted vomits ([4]; 1 mg/kg subcutaneous): 100%
Inhibition of the emetic effect of apomorphine compared with metoclopramide ([4]; oral administration): superior to that of metoclopramide
Inhibition of the emetic effect of apomorphine compared with metoclopramide ([4]; subcutaneous injection): equal to that of metoclopramide
Sedative effect (in words) (central nervous system): non-sedative

CCN(CC)CCOCCOC(=O)C1(c2ccccc2)CCCC1 [Pentoxyverine, pentoxyverine, reference compound]
Activity of the product (antitussive) (coughing spasms; 10 mg/kg body weight): 45%
Duration of activity (antitussive) (coughing spasms; 10 mg/kg body weight): 30 min
Activity of the product (antitussive) (coughing spasms; 50 mg/kg body weight): 71%
Duration of activity (antitussive) (coughing spasms; 50 mg/kg body weight): 110 min

C#CC(C)(C)OCC(O)CN1CCN(CC(OC)c2ccccc2)CC1 (stereo not shown) [compound 23]
Activity of the product (antitussive) (coughing spasms; 10 mg/kg body weight): 31%
Duration of activity (antitussive) (coughing spasms; 10 mg/kg body weight): 25 min

O=C(CCCN1CCC(O)(c2ccc(Cl)cc2)CC1)c1ccc(F)cc1 [Haloperidol, haloperidol, reference compound]
LD50 [2]: 125 mg/kg
ED50 ([3]; po): 12 mg/kg
Catalepsy (rat): 1
Cerebral dopamine (cerebral dopamine; at 10 mg/kg): -30%
Anti-apomorphine (apomorphine; subcutaneous): 0.5

C#CC1(OCC(O)CN2CCN(c3ccccc3)CC2)CCCCC1 (stereo not shown) [Compound No. 2]
LD50 [2]: > 600 mg/kg
ED50 [3, 6]: 100 mg/kg
Catalepsy (rat): 50
Cerebral dopamine (cerebral dopamine; at 40 mg/kg): -33%
Anti-apomorphine (apomorphine; subcutaneous): 50

C#CC(C)(CC)OCC(O)CN1CCN(c2ccc(F)cc2)CC1 (stereo not shown) [compound 9]
LD50 [2]: > 600 mg/kg
ED50 [3, 6]: > 100 mg/kg
Catalepsy (rat): 60
Cerebral dopamine (cerebral dopamine; at 60 mg/kg): -50%
Duration of activity (blood-pressure) ([1]; 1.25 mg/kg intravenous): 20 min
change in vivo at 1.25 mg/kg [1, 5]: -27%

C#CC1(OCC(O)CN2CCN(c3ccc(F)cc3)CC2)CCCCC1 (stereo not shown) [Compound No. 4, 1-3-(1-ethynyl)cyclohexyloxy-2-hydroxy propyl-4-(4-fluorophenyl)piperazine]
LD50 [2]: 800 mg/kg
ED50 [3, 6]: 20 mg/kg
Catalepsy (rat): 20
Cerebral dopamine (cerebral dopamine; at 10 mg/kg): -50%
Depletion of cerebral mono-amines (in words) (cerebral dopamine; in vivo): depletion of cerebral mono-amines in a manner reminiscent of reserpine
Anti-apomorphine (apomorphine; O.A.): 92
Duration of activity (blood-pressure) ([1]; 5 mg/kg intravenous): 20 min
change in vivo at 5 mg/kg ([1]; Canis lupus familiaris, 5 mg/kg intravenous): -50%
Reduction in attempted vomits ([4]; 1 mg/kg subcutaneous): 74%
Neuroleptic/psycholeptic activity (in words) (central nervous system): fairly full spectrum characteristic of neuroleptic activity

C#CC(C)(C)OCC(O)CN1CCN(c2ccccc2)CC1 (stereo not shown) [Compound No. 1]
Duration of activity (blood-pressure) ([1]; 1.25 mg/kg intravenous): ≥ 35 min
change in vivo at 1.25 mg/kg [1, 5]: -20.3%

C#CC(C)(CC)OCC(O)CN1CCN(c2ccccc2)CC1 (stereo not shown) [Compound No. 3]
LD50 [2]: > 600 mg/kg
ED50 [3, 6]: > 100 mg/kg
Catalepsy, result at stated dose (rat; at 40): Inactive
Cerebral dopamine (cerebral dopamine; at 60 mg/kg): -45%
Duration of activity (blood-pressure) ([1]; 1.25 mg/kg intravenous): 35 min
change in vivo at 1.25 mg/kg [1, 5]: -21.5%
Hypotensive effect (in words) [1]: markedly hypotensive
Neuroleptic/psycholeptic activity (in words) (central nervous system): only slightly neuroleptic

C#CC(C)(C)OCC(O)CN1CCN(c2ccc(F)cc2)CC1 (stereo not shown) [compound 5]
Duration of activity (blood-pressure) ([1]; 1.25 mg/kg intravenous): ≥ 35 min
change in vivo at 1.25 mg/kg [1, 5]: -19.5%

C#CC1(OCC(O)CN2CCN(CC(OC)c3ccccc3)CC2)CCCCC1 (stereo not shown) [compound 21]
Activity of the product (antitussive) (coughing spasms; 10 mg/kg body weight): 54%
Duration of activity (antitussive) (coughing spasms; 10 mg/kg body weight): 20 min

CCN(CC)CCNC(=O)c1cc(Cl)c(N)cc1OC [Metoclopramide, metoclopramide, reference compound]
Reduction in attempted vomits ([4]; 1 mg/kg subcutaneous): 100%
Reduction in attempted vomits ([4]; 1.5 mg/kg oral): 100%

C#CC(C)(CC)OCC(O)CN1CCN(c2ccccc2OC)CC1 (stereo not shown) [compound 18]
LD50 [2]: > 200 mg/kg
ED50 [3, 6]: > 25 mg/kg
Catalepsy, result at stated dose (rat; at 40): Inactive
Cataleptic effect (in words) (rat): non-inducive of catalepsy
Cerebral dopamine (cerebral dopamine; at 20 mg/kg): -24%
Activity in apomorphine stereotypes (in words) (apomorphine): active in apomorphine stereotypes
Anti-apomorphine (apomorphine; subcutaneous): 10
Sedative effect (in words) (central nervous system): non-sedative

C#CC1(OCC(O)CN2CCN(c3cccc(C(F)(F)F)c3)CC2)CCCCC1 (stereo not shown) [Compound No. 11]
LD50 [2]: 783 mg/kg
ED50 [3, 6]: 90 mg/kg
Catalepsy, result at stated dose (rat; at 40): Inactive
Cataleptic effect (in words) (rat): slightly cataleptic
Cerebral dopamine (result in words) (cerebral dopamine): Inactive
Anti-apomorphine (apomorphine; O.A.): 15
Activity in apomorphine stereotypes (in words) (apomorphine): extremely active in apomorphine stereotypes
Duration of activity (blood-pressure) ([1]; 1.25 mg/kg intravenous): 30 min
change in vivo at 1.25 mg/kg [1, 5]: -15%
Hypotensive effect (in words) [1]: slightly hypotensive
Reduction in attempted vomits ([4]; 10 mg/kg oral): 75%
Sedative effect (in words) (central nervous system): fairly sedative

C#CC(C)(CC)OCC(O)CN1CCN(CC(OCC)c2ccccc2)CC1 (stereo not shown) [Compound No. 25, 1-3-(1-methyl-1-ethynyl)propoxy-2-hydroxy propyl-4-(2-ethoxy-2-phenyl)ethylpiperazine]
Activity of the product (antitussive) (coughing spasms; 5 mg/kg body weight): 41%
Duration of activity (antitussive) (coughing spasms; 5 mg/kg body weight): > 35 min
Activity of the product (antitussive) (coughing spasms; 7.5 mg/kg body weight): 49%
Duration of activity (antitussive) (coughing spasms; 7.5 mg/kg body weight): 62 min
Activity of the product (antitussive) (coughing spasms; 10 mg/kg body weight): 71%
Duration of activity (antitussive) (coughing spasms; 10 mg/kg body weight): 80 min
Dose of pentoxyverine necessary for comparable antitussive effect, relative to compound (coughing spasms): five times greater
